According to patent US6509377B1, “Use of a 2-hydroxy-4-trifluoromethylbenzoic acid derivatives as inhibitors of the activation of the nuclear transcription factor NF-κB” (J. Uriach & Cia, S.A., priority 1999, dated 2003):

Key:
[1] = test system: NF-κB; experiment: Activation of NF-κB induced by LPS in human PBMC (EMSA); assay type: cell-based; settings: human PBMCs, HTB 1-3 mM, 1 hour, then LPS 10 μg/ml 10 minutes
Description: Mononuclear cells (PBMC) were obtained from blood of healthy donors from the Hospital de Sant Pau (Barcelona) who had not taken any antiinflammatory drug during a period of not less than 2 weeks before blood extraction. Starting from a volume of about 80 ml of heparinized human blood (10 U/ml), this was diluted (1:1) with PBS (pH 7.4; Dulbecco) without calcium, magnesium nor sodium bicarbonate.
15 ml of Ficoll solution (d=1.077 at 20° C.; Biochrom KG) were placed in 50-ml Falcon tubes. To this solution a volume of about 25 ml per tube of the blood previously diluted with PBS was carefully added and the tubes were then centrifuged at 1,200 g for 20 minutes. Mononuclear cells concentrate on a whitish interphase between the plasma and the Ficoll solution. This interphase was collected with a Pasteur pipette and was diluted 1:1 with PBS. It was then centrifuged at 300 g for 10 min. The resulting pellet was resuspended in 50 ml PBS and was again centrifuged at 200 g for 10 min, in order to remove platelet contamination. […]
Prior to the various treatments, cell viability was determined by the Trypan Blue exclusion assay. […]
After incubation, PBMCs were washed twice with PBS and the degree of activation (binding to DNA) of the transcription factor NF-κB was determined using the EMSA assay, described in detail in Example 1.

[2] = test system: human peripheral blood mononuclear cells (PBMC); experiment: Cell viability controls of human PBMC (MTT assay); assay type: cell-based; settings: Example 3, HTB 1-3 mM with LPS, 3 mM without LPS
Description: Prior to the various treatments, cell viability was determined by the Trypan Blue exclusion assay. Cells were diluted at a concentration of 2.5 million/ml with RPMI medium containing 10% fetal calf serum and were incubated (37° C., 5% CO2) 1 hour in 6-well plates (2 ml/well, 5 million PBMC) without adding any drug (control) or adding HTB (1-3 mM). Next, cells were incubated for further 10 minutes in the presence of 10 μg/ml E.coli lipopolysaccharide (LPS, 026:B6 serotype; Sigma). After incubation, a sample (100 μl) was taken in order to carry out a cell count as well as cell viability controls by measuring the ability of mitochondrial dehydrogenases to convert the soluble tetrazolium salt, MTT the insoluble product formazan (MTT assay). Cells were also incubated with HTB (3 mM) in the absence of LPS. In all cases, cell viability was equal to or higher than 95%.
Cells were diluted at a concentration of 2.5 million/ml with RPMI medium containing 10% fetal calf serum and were incubated (37° C., 5% CO2) 19 hours in 6-well plates (2 ml/well, 5 million PBMC). Incubations were carried out in the presence of 10 μg/ml E.coli lipopolysaccharide (LPS, 026:B6 serotype; Sigma) without adding any drug (control) or adding Triflusal or HTB (0.1-5 mM). Prior to incubations, cell viability controls were performed using the Trypan Blue exclusion assay. […]

[3] = Cell viability of Jurkat cells (EZ4U); assay type: cell-based; settings: human, Jurkat cells (acute T cell leukemia), read-out: Percentage of cell viability
Description: Several cell lines obtained from the American Type Culture Collection (ATCC) were cultured at 37° C. and under a 5% CO2 atmosphere. Each cell line was grown in an appropriate culture medium and within the exponential phase (Table I).
For the cell viability studies 24-well plates were used, where 0.5×10^6 cells/ml (for 24-hour studies), 0.25×10^6 cells/ml (for 48-hour studies) or 0.125×10^6 cells/ml (for 72-hour studies) were incubated. Next, different concentrations of HTB (1-3 mM) were added and cells were incubated for different time periods (37° C., 5% CO2). After incubation, the supernatant from each well was extracted, and cells were washed with culture medium without fetal calf serum. Then, the supernatant was extracted and 200 μl culture medium without fetal calf serum were added to each well. In addition, 20 μl substrate were added to determine cell viability. This method is based on the ability of viable cells to transform the colourless substrate into a coloured substance that is excreted to the supernatant (EZ4U, Biomedica Gmbh.). After incubating cells for 1 hour at 37° C. and 5% CO2, 200 μl supernatant were collected and the absorbance was measured at 450 nm.
The absorbance was also determined at 620 nm as a measure of the existing non-specific value.

[4] = test system: COX-2; experiment: COX-2 expression in rat inflammatory exudate cells (carrageenan air pouch); assay type: in vivo; settings: oral 3-30 mg/kg, 6 h
Description: (§1) Lewis rats (175-200 g) were used in this study. Rats were randomly distributed in groups of 5 animals. An, air pouch was produced by subcutaneous injection of 20 ml of sterile air into the intrascapular area of animals in each group. Every two days, 10 ml of air were injected again into the cavity to keep the space open. Seven days after the first injection of air, 2 ml of a 1% carrageenan solution was injected into the air pouch in all groups to produce an inflammatory reaction. Test compound was administered orally 30 min before carrageenan administration. The animals were killed 6 h later and the volume of exudate was measured. The type and number of cells present were determined using standard Wright-Giemsa staining and a Coulter Counter cell counter, respectively. The exudate was centrifuged at 400 g at 4° C. for 7 min and PGE2 concentration was determined by enzyme-immunoassay (Amershan-Biotrak RPN222). The cell pellet was resuspended in 2 ml cold 0.85% NaCl. To eliminate red cell contamination, cells were subjected to a selective cellular lysis by the addition of 6 ml cold water for 20 seconds. The isotonicity of the cellular suspension was restored by the addition of 2 ml 3.5% NaCl. […]

[5] = test system: COX-2; experiment: PGE2 production in rat exudate (carrageenan air pouch); assay type: in vivo; settings: oral 3-30 mg/kg, 6 h
Description: as §1

O=C(O)c1ccc(C(F)(F)F)cc1O [HTB, 2-hydroxy-4-trifluoromethylbenzoic acid]
inhibition of the activation of NF-κB induced by LPS [1]: markedly inhibits | cell viability [2]: ≥ 95% | viability at 0 h, 1 mM ([3]; 1 mM HTB, 0 hours): 100% | viability at 2 h, 1 mM ([3]; 1 mM HTB, 2 hours): 100% | viability at 5 h, 1 mM ([3]; 1 mM HTB, 5 hours): 76.8% | viability at 24 h, 1 mM ([3]; 1 mM HTB, 24 hours): 11.3% | viability at 48 h, 1 mM ([3]; 1 mM HTB, 48 hours): 3.6% | viability at 72 h, 1 mM ([3]; 1 mM HTB, 72 hours): 1.6% | viability at 0 h, 3 mM ([3]; 3 mM HTB, 0 hours): 100% | viability at 2 h, 3 mM ([3]; 3 mM HTB, 2 hours): 100% | viability at 5 h, 3 mM ([3]; 3 mM HTB, 5 hours): 62.6% | viability at 24 h, 3 mM ([3]; 3 mM HTB, 24 hours): 6.2% | viability at 48 h, 3 mM ([3]; 3 mM HTB, 48 hours): 5.4%

CC(=O)Oc1cc(C(F)(F)F)ccc1C(=O)O [triflusal, 2-Acetyloxy-4-trifluoromethylbenzoic acid, reference compound]
inhibition of COX-2 expression in the cells present in the exudate [4]: dose-dependently inhibits | inhibition of PGE2 production in the exudate [5]: dose-dependently inhibits
